From ChEMBL document CHEMBL1201862, “PubChem BioAssay data set” (2004)
Blank lines part the entries; values can stand above or below the compound they belong to. Active and inactive are the calls of the source.

What was measured:
[1] = target: T1, Calpain-2 catalytic subunit (Sus scrofa, UniProt P43367); test: m-calpain protease blockers, concentration series – biochemical, fluorogenic peptide substrate, dose response (AID 1420); assay type: functional
T1 sequence (P43367 whole entry): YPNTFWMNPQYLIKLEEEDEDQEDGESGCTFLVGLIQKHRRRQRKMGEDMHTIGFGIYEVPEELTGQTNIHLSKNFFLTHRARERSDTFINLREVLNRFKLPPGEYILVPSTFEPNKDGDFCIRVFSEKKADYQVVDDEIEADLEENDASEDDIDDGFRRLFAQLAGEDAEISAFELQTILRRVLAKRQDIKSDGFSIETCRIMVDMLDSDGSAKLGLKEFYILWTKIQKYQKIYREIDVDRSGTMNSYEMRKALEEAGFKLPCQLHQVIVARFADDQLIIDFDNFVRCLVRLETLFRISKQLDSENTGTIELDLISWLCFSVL

[2] = target: T2, Tyrosine-protein phosphatase non-receptor type 7 (Homo sapiens, UniProt P35236); test: HePTP tyrosine phosphatase activity blockers – biochemical, absorbance, leukemia target, primary screen (AID 521); assay type: functional
T2 sequence (P35236 whole entry): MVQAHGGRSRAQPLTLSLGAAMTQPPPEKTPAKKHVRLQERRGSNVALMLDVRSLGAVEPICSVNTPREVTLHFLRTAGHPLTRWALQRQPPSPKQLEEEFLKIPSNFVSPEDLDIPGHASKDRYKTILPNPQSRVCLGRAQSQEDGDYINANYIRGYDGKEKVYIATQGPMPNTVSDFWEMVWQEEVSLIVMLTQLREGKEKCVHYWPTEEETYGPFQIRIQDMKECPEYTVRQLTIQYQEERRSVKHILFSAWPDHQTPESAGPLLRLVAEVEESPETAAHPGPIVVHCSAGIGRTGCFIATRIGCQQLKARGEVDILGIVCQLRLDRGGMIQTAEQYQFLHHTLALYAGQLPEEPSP

[3] = HPDE-C7 pancreatic duct cell viability loss – fluorescence, HTS (AID 430); assay type: functional, cell-based; details: Homo sapiens
[4] = viability loss of HPDE-C7K cells – cell-based, fluorescence, HTS, primary screen (AID 431); assay type: functional; details: Homo sapiens
[5] = viability of PTEN-deleted HCT116 cells – cell-based, HCT116 PTEN knockout, dose response (AID 1047); assay type: functional;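 note: HCT116 colon tumor cells with PTEN knocked out; cells exposed to compound for 60 hours before readout; potency for loss of cell viability measured by luminescence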
[6] = viability of HCT116 lacking mutant beta-catenin – cell-based, human colon tumor, dose response (AID 1045); assay type: functional;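 note: HCT116 colon tumor cells with beta catenin knocked out; cells exposed to compound for 60 hours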
[7] = target: Induced myeloid leukemia cell differentiation protein Mcl-1 (Homo sapiens, UniProt Q07820); assay type: functional
[8] = target: T3, Aminopeptidase N (Plasmodium falciparum FcB1/Columbia, UniProt O96935); test: malaria alanyl aminopeptidase activity blockers – biochemical, fluorogenic H-Leu-NHMec substrate, 1536-well (AID 1445); design: species or system Plasmodium falciparum 3D7, 3D7
T3 sequence (O96935 whole entry): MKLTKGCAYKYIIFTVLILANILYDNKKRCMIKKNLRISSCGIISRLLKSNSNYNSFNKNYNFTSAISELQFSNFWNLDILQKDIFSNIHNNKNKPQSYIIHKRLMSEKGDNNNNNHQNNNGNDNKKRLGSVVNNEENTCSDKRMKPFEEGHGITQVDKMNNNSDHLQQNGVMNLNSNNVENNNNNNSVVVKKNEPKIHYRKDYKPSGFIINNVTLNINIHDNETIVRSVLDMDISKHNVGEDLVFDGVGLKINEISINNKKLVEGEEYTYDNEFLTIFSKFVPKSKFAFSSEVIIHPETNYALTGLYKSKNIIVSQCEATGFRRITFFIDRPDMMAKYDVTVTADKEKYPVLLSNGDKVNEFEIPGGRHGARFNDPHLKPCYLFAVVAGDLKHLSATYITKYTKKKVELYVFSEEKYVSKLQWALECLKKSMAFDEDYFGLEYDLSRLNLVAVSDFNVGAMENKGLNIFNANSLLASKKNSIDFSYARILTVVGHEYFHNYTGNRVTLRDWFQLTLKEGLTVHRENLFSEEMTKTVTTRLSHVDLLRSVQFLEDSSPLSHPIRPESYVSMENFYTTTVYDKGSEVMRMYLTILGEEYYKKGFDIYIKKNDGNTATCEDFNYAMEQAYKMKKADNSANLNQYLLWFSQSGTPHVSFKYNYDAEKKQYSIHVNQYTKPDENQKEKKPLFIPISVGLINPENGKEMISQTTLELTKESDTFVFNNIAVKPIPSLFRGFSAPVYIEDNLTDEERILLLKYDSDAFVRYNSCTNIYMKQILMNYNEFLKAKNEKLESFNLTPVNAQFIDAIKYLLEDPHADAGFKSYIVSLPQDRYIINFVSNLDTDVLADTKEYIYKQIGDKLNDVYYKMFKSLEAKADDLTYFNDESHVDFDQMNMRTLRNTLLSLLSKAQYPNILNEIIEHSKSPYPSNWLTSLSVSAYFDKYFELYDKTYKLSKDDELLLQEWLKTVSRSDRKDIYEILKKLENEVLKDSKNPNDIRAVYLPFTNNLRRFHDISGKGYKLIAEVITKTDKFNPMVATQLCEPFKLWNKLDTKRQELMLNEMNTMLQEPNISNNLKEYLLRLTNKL

[9] = target: T4, Mannose-6-phosphate isomerase (Homo sapiens, UniProt P34949); test: MPI enzyme activity inhibition – biochemical, fluorescence intensity, coupled assay, primary screen (AID 1209)
T4 sequence (P34949 whole entry): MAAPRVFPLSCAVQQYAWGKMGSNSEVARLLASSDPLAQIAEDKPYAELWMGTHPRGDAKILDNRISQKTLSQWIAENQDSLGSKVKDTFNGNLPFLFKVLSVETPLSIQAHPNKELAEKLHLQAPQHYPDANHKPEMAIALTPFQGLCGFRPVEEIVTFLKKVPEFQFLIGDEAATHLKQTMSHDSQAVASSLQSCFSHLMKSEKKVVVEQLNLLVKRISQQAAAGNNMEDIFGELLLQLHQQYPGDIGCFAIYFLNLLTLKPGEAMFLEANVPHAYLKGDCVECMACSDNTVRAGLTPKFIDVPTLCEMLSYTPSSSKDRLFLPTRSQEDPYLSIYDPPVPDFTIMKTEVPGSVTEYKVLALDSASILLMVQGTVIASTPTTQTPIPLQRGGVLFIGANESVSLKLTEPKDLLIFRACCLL

[10] = target: T4, Mannose-6-phosphate isomerase; test: MPI inhibition at elevated mannose 6-phosphate – biochemical, fluorescence intensity, high mannose 6-phosphate, primary screen (AID 1220)
[11] = target: T5, Leucine aminopeptidase (Plasmodium falciparum 3D7, UniProt Q8IL11); test: P. falciparum M17LAP inhibitors, primary screen, biochemical, fluorogenic H-Leu-NHMec substrate, 1536-well (AID 1619); assay type: functional
T5 sequence (Q8IL11 whole entry): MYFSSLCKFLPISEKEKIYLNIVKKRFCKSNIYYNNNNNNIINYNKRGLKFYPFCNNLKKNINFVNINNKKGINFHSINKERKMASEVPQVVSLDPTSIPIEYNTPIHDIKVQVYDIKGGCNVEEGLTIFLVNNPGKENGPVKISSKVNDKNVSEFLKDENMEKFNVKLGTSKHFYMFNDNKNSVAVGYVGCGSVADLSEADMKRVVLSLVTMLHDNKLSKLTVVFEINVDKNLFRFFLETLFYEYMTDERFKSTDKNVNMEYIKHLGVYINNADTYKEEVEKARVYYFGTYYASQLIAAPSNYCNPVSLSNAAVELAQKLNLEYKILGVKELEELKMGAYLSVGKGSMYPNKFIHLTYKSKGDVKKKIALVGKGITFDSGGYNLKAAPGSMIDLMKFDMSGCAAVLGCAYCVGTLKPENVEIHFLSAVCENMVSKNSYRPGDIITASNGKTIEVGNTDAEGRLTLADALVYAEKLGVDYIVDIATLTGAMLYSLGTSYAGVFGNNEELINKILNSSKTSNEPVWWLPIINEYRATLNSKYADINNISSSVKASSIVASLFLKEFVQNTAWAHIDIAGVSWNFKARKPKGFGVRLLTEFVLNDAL

[12] = target: Large T antigen (Simian virus 40, UniProt P03070); assay type: functional, Betapolyomavirus macacae;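 note: Confirmatory-stage PubChem screen for compounds that inhibit SV40 T antigen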
[13] = target: T6, Polyadenylate-binding protein 1 (Homo sapiens, UniProt P11940); test: MLLE binding blockers, Cy5 peptide tracer – biochemical, fluorescence polarization, Cy5-PAM2 peptide, secondary, miRNA deadenylation inhibitor project, dose response (AID 602260); assay type: functional; details: read-out: IC50_Mean
[14] = target: T6, Polyadenylate-binding protein 1; test: MLLE domain peptide-binding blockers, IC50 – biochemical, fluorescence polarization, FITC-PAM2 peptide, dose response (AID 602259); assay type: functional; details: read-out: IC50_Mean
[15] = target: T7, Rac GTPase-activating protein 1 (Homo sapiens, UniProt Q9H0H5); test: blockers of MgcRacGAP-driven Rac1 GTP hydrolysis – biochemical, ADP Hunter fluorescence, primary and confirmatory, confirmation (AID 624330); assay type: functional
T7 sequence (Q9H0H5 whole entry): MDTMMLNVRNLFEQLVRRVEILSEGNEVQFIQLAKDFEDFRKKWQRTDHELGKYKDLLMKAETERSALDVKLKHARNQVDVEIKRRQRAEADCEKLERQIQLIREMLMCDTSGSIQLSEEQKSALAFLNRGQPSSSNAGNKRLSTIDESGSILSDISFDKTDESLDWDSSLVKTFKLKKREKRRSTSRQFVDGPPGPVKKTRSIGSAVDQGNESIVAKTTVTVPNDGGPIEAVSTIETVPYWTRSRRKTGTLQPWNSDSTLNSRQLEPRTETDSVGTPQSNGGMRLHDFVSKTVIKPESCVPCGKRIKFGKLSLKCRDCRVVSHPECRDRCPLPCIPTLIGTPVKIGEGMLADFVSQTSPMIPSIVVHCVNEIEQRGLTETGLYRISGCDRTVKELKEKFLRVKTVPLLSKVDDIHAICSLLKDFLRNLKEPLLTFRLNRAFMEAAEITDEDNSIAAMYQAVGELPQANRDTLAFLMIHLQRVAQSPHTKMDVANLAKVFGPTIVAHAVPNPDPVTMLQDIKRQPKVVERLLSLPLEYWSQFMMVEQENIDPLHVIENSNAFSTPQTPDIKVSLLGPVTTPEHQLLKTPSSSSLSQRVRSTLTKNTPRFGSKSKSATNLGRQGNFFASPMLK

Sequence of Induced myeloid leukemia cell differentiation protein Mcl-1 (Q07820 whole entry): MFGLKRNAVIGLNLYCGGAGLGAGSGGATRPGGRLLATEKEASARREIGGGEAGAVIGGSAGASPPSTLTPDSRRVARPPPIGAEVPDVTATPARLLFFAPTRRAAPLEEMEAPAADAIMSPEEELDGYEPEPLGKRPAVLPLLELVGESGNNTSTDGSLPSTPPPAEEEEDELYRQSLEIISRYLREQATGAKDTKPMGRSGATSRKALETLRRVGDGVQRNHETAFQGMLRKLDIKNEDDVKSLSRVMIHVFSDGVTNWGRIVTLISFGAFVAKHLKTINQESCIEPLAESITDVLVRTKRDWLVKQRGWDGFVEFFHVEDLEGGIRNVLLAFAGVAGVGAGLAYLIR
T6 sequence (P11940 whole entry, the tested form may be a part): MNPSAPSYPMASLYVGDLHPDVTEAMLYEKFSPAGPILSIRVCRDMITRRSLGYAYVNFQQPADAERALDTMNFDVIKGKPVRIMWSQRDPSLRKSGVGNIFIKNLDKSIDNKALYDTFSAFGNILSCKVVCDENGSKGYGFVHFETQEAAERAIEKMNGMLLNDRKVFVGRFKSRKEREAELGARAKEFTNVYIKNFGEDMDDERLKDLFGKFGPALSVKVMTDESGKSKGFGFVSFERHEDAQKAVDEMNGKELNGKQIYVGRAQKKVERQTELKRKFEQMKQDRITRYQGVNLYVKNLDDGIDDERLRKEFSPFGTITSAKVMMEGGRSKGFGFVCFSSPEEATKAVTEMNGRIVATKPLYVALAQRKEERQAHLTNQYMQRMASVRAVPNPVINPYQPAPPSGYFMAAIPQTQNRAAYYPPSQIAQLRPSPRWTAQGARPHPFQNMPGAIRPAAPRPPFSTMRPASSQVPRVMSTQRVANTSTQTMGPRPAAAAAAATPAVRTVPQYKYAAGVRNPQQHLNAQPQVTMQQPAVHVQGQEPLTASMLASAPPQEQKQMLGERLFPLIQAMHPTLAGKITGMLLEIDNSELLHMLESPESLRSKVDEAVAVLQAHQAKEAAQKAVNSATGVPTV
Sequence of Large T antigen (P03070 whole entry): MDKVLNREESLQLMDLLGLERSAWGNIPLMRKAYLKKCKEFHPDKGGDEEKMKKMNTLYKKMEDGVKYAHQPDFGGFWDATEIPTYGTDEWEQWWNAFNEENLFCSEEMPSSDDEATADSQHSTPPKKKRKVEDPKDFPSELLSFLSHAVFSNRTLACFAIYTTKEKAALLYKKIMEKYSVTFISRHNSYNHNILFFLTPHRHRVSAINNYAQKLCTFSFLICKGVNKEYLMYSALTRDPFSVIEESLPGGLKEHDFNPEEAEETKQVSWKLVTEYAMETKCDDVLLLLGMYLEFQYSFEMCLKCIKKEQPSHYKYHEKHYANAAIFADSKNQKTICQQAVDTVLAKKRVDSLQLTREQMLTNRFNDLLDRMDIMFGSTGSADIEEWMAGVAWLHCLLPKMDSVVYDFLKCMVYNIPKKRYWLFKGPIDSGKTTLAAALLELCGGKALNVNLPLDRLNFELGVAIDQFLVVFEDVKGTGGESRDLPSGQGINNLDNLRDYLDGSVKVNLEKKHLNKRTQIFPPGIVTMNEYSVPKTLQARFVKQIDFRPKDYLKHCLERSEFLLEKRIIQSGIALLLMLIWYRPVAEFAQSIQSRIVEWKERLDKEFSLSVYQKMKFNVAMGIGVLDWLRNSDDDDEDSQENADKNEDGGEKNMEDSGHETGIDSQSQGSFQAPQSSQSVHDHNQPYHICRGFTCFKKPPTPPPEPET

IC50 [2]: > 100 µM (not active)
SMILES: O=C(CN1C(=O)C2C3c4ccccc4C(c4ccccc43)C2C1=O)N1CCOCC1 (centres undefined)

IC50 [1]: 8.67 µM (not active)
SMILES: COC(=O)c1ccccc1NC(=O)N1CCN(c2ccc(F)cc2)CC1

IC50 [7]: 2.69 µM (active)
SMILES: COc1ccccc1/C=C1/SC(=O)N(CCC(=O)Nc2ccc(S(=O)(=O)Nc3nccs3)cc2)C1=O

IC50 [2]: > 100 µM (not active)
SMILES: O=C(Nc1ccccn1)c1cccc(S(=O)(=O)N2CCCCC2)c1

IC50 [1]: 2.99 µM (not active)
SMILES: O=C(Nc1ccc(Cl)c(Cl)c1)OCCNC(=O)c1cccc(Cl)c1

Second part, the compound before the results:

SMILES: CC(C)c1ccc(NC(S)=NC2CC3C=CC2C3)cc1 (centres undefined)
IC50 [1]: 42.5 µM (not active)

SMILES: Cc1cc(-c2nnc3n2N=C(c2ccc(-c4ccccc4)cc2)CS3)[nH]n1
IC50 [2]: > 100 µM (not active)
EC50 [3]: 15.2 µM (active)
EC50 [4]: 16.1 µM (active)
EC50 [5]: 15.9 µM (active)
EC50 [6]: 13.7 µM (active)

SMILES: CC(=O)NNC(=O)c1sc(=S)n2c1[nH]c(=O)c1sccc12
IC50 [8]: 11.6 µM (active)
IC50 [9]: > 50 µM (not active)
IC50 [10]: > 50 µM (not active)

SMILES: O=C(O)C1CC=CCC1C(=O)Nc1ccc(F)c(F)c1 (centres undefined)
IC50 [11]: 20.4 µM (active)
IC50 [2]: > 100 µM (not active)

SMILES: Nc1nnc(S)n1N=C1C(=O)Nc2ccccc21
IC50 [12]: 7.65 µM (active)
IC50 [9]: 30 µM (active)
IC50 [10]: 4.84 µM (active)
IC50 [13]: > 66 µM (inactive)
IC50 [14]: > 66 µM (inactive)
IC50 [15]: 57.4 µM (active)

SMILES: Oc1ccc(/C=N/Nc2ccnc3cc(Cl)ccc23)c(O)c1
IC50 [7]: 6.73 µM (active)

SMILES: CCCOc1ccc(Cc2nn3c(=O)/c(=C/c4ccco4)sc3nc2=O)cc1
IC50 [7]: 8.96 µM (not active)
